The record followed here is US20210122739A1, “NOVEL SULFONAMIDE CARBOXAMIDE COMPOUNDS” (Inflazome Limited, priority 2017, published 2021).

The nature of data set [1]: PK protocol: pharmacokinetic parameters in male Sprague Dawley rats. Format: in vivo. The settings on record: plasma, rat; for Vd: read-out: Vdss. The protocol: Pharmacokinetic parameters were determined in male Sprague Dawley rats (Charles River, UK, 250-350 g; or Vital River Laboratory Animal Technology Co Ltd, Beijing, China, 7-9 weeks old). Animals were individually housed during the study and maintained under a 12 h light/dark cycle. Animals had free access to food and water except that some orally dosed animals were food deprived overnight prior to the study.
For intravenous administration, compounds were formulated as a solution in water or DMSO:PBS [10:90] in 2 mL/kg dosing volume and administered via tail vein. For oral administration, compounds were formulated as a solution in water or DMSO:water [10:90] in 5 mL/kg dosing volume and administered orally.
Serial blood samples (about 120-300 μL) were taken from each animal at each of 8 time-points post dose (0.083, 0.25, 0.5, 1, 2, 4, 8 and 24 h) or at each of 12 time-points post dose (0.03, 0.1, 0.17, 0.25, 0.5, 1, 2, 4, 6, 8, 12 and 24 h) or pre-dose and at each of 9 time-points post dose (0.25, 0.5, 1, 2, 4, 6, 8, 12 and 24 h). Samples were held on ice for no longer than 30 minutes before centrifugation (10,000 rpm (8,385 g) for 3 minutes; or 5,696 rpm (3,000 g) for 15 minutes) for plasma generation. Plasma was frozen on dry ice prior to bioanalysis. PK parameters were generated from LC-MS/MS data using Dotmatics or Phoenix WinNonlin 6.3 software.

Data set [2] deals with T1, NLRP3 (Homo sapiens, UniProt Q96P20). The experiment in a line: THP-1 cells pyroptosis assay. To be noted: 1.0 μg/ml LPS, nigericin 5 μM, resazurin readout. Format: cell-based. Also on record: Seed THP-1 cells (25,000 cells/well) containing 1.0 μg/ml LPS; host or cells: THP-1 cells, LPS-primed, nigericin-stimulated. The essentials:
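THP-1 cells (25,000/well, serum-free RPMI) primed with 1 μg/ml LPS were given compound (8-point half-log series, top 10 μM; 0.1% DMSO) for 3 h at 37 °C, then 5 μM nigericin for 1 h. Viability read by 100 μM resazurin fluorescence (Ex 560/Em 590) after 1–2 h; IC50 from four-parameter nonlinear regression.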
(Resazurin is reduced to fluorescent resorufin, in cell work by metabolically active cells.)

Data set [3] concerns the target T1, NLRP3. The experiment in a line: Human whole blood IL1β release assay. It is filed as cell-based. Further details: Plate out 80 μl of whole blood containing 1 μg/ml of LPS; from tissue; host or cells: human whole blood from healthy donors, LPS-primed, nigericin-stimulated. The settings on record: 1 μg/ml LPS, nigericin 10 μM, IL-1β by AlphaLisa, read-out: HWB IC50. The protocol: For systemic delivery, the ability to inhibit NLRP3 when the compounds are present within the bloodstream is of great importance. For this reason, the NLRP3 inhibitory activity of a number of compounds in human whole blood was investigated in accordance with the following protocol.
Human whole blood in Li-heparin tubes was obtained from healthy donors from a volunteer donor panel. • 1. Plate out 80 μl of whole blood containing 1 μg/ml of LPS in 96-well, clear bottom cell culture plate (Corning #3585) • 2. Add 10 μl compound (8 points half-log dilution with 10 μM top dose) or vehicle (DMSO 0.1% FAC) to the appropriate wells • 3. Incubate for 3 hrs at 37° C., 5% CO2 • 4. Add 10 μl Nigericin (Sigma #N7143) (10 μM FAC) to all wells • 5. Incubate for 1 hr at 37° C., 5% CO2 • 6. At the end of the incubation period, spin plates at 300×g for 5 mins to pellet cells and remove 20 μl of supernatant and add to 96-well v-bottom plates for IL-1β analysis (note: these plates containing the supernatants can be stored at −80° C. to be analysed at a later date) • 7. IL-1β was measured according to the manufacturer protocol (Perkin Elmer-AlphaLisa IL-1 Kit AL220F-5000) • 8. IC50 data is fitted to anon-linear regression equation (log inhibitor vs response-variable slope 4-parameters)

Setting [4] is: oral administration, dose per compound in Dose column (3 or 5 mg/kg).
Setting [5] is: intravenous administration, dose per compound in Dose column (0.83-5.05 mg/kg).

T1 sequence (Q96P20 whole entry): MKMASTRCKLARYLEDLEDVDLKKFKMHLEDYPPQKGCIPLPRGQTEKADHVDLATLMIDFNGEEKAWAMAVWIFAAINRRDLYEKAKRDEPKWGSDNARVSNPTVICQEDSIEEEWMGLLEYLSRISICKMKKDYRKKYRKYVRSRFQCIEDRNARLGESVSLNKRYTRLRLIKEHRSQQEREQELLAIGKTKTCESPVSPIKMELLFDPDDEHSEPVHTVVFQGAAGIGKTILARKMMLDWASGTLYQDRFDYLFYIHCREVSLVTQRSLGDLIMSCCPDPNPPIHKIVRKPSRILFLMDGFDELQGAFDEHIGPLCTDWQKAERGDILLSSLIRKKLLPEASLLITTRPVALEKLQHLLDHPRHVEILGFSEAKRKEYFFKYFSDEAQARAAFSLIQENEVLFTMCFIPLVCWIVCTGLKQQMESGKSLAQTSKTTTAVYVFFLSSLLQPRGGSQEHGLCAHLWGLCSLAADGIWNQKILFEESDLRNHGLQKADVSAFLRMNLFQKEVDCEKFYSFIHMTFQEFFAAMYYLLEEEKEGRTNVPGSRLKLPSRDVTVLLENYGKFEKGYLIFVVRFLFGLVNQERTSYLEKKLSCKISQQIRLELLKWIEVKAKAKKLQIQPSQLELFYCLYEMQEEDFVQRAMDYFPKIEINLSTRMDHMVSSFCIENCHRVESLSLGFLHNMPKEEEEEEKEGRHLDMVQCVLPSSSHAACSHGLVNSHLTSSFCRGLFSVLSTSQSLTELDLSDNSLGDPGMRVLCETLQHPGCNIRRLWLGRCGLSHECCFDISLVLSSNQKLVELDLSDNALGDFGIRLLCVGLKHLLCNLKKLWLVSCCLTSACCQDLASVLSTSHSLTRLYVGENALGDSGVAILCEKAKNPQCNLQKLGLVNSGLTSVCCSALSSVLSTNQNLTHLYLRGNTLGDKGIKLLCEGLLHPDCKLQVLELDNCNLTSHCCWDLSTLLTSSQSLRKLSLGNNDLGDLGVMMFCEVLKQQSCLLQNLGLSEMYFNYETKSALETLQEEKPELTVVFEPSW

Broadly, the CL/F is the apparent clearance, not corrected for the fraction that reaches the circulation. For orientation: Tmax means the time from dosing to the highest level. The term bioavailability denotes the share of a dose that reaches the circulation, judged against a reference dose that is usually intravenous. Read a low bioavailability as little systemic uptake. A word on the half-life: it is the time needed for the level to fall by half in the phase considered. Lower therefore signals rapid decline. As usually defined, the IC50 is the concentration that inhibits the measured activity by half. Consider `COCCN(C)C(=O)c1cc(S(=O)(=O)NC(=O)Nc2c3c(cc4c2CCC4)CCC3)nn1C` [Example 27, 3-(N-((1,2,3,5,6,7-Hexahydro-s-indacen-4-yl)carbamoyl)sulfamoyl)-N-(2-methoxyethyl)-N,1-dimethyl-1H-pyrazole-5-carboxamide], for which, in data set [1] (setting [4]), the CL/F is 21.5 mL/min/kg, the Tmax was 0.08 h, the bioavailability was 67% and the half-life was 4.9 h. Further, the IC50 in data set [2] lay within 40 to 160 nM. Further, in data set [3], the IC50 fell in the range of 400 to 800 nM.
For orientation: AUC means the area under the concentration-time curve, a measure of exposure. Lower therefore signals low exposure. Broadly, the clearance is the volume of plasma or blood freed of the substance per unit of time. High values mean efficient removal, low ones inefficient removal. With `CC(C)n1nc(S(=O)(=O)NC(=O)Nc2c3c(cc4c2CCC4)CCC3)cc1C(=O)N1CCC1` [Example 31, 5-(Azetidine-1-carbonyl)-N-((1,2,3,5,6,7-hexahydro-s-indacen-4-yl)carbamoyl)-1-isopropyl-1H-pyrazole-3-sulfonamide], in data set [1] (setting [5]), the AUC was determined as 303 ng·h/mL, the clearance was found to be 55.3 mL/min/kg, the half-life was 1.6 h and the Vd turned out to be 1.66 L/kg. This compound registered an IC50 in data set [2] of 40 to 160 nM. In data set [3], the IC50 was 800 to 1600 nM.
For the compound `CC(C)c1cc(F)cc(C(C)C)c1NC(=O)NS(=O)(=O)c1cc(C(=O)N2CCC2)n(C)n1` [Example 45, 5-(Azetidine-1-carbonyl)-N-((4-fluoro-2,6-diisopropylphenyl)carbamoyl)-1-methyl-1H-pyrazole-3-sulfonamide], in data set [1] (setting [5]), the area under the curve (AUC) was 415 ng·h/mL, the clearance came to 40.3 mL/min/kg, the half-life is 6.4 h and the Vd came to 7.96 L/kg. Moreover, the IC50 in data set [2] lay in the range of 40 to 160 nM. Also, in data set [3], the IC50 was < 400 nM.
By Cmax is commonly meant the peak of the concentration-time curve. On to `CC(C)c1cc(F)cc(C(C)C)c1NC(=O)NS(=O)(=O)c1cc(C(=O)N(C)C)n(C)n1` [Example 60, 3-(N-((4-Fluoro-2,6-diisopropylphenyl)carbamoyl)sulfamoyl)-N,N,1-trimethyl-1H-pyrazole-5-carboxamide], for which, in data set [1] (setting [5]), the AUC was 283 ng·h/mL, the clearance was 59.2 mL/min/kg, the half-life was 3.3 h and the Vd was 4.08 L/kg. Also, in data set [1] (setting [4]), the AUC came to 770 ng·h/mL, the CL/F was found to be 110 mL/min/kg, the highest level (Cmax) was 495 ng/mL and the Tmax was determined as 0.17 h. Also, in data set [1] (setting [4]), the bioavailability is 54.3% and the half-life is 9.7 h. In data set [2], this compound yielded an IC50 of 160 to 640 nM. The IC50 in data set [3] is < 400 nM.
Consider `CCN(C)C(=O)c1cc(S(=O)(=O)NC(=O)Nc2c3c(cc4c2CCC4)CCC3)nn1C` [Example 62, N-Ethyl-3-(N-((1,2,3,5,6,7-hexahydro-s-indacen-4-yl)carbamoyl)sulfamoyl)-N,1-dimethyl-1H-pyrazole-5-carboxamide], for which, in data set [1] (setting [5]), the AUC is 1720 ng·h/mL, the clearance amounted to 25 mL/min/kg, the half-life was 0.1 h and the Vd was 0.24 L/kg. Further, the IC50 in data set [2] lay in the range of 40 to 160 nM. Moreover, the IC50 in data set [3] is 400 to 800 nM.
As to `CC(C)c1cccc(C(C)C)c1NC(=O)NS(=O)(=O)c1cc(C(=O)N(C)C)n(C)n1` [Example 67, 3-(N-((2,6-Diisopropylphenyl)carbamoyl)sulfamoyl)-N,N,1-trimethyl-1H-pyrazole-5-carboxamide], in data set [1] (setting [5]), the exposure (AUC) is 334 ng·h/mL, the clearance stood at 48.7 mL/min/kg, the half-life is 0.5 h and the Vd was 0.99 L/kg. Further, the IC50 in data set [2] was 160 to 640 nM. Moreover, the IC50 in data set [3] is < 400 nM.
Consider `CC(C)c1cc(Cl)cc(C(C)C)c1NC(=O)NS(=O)(=O)c1cc(C(=O)N(C)C)n(C)n1` [Example 68, 3-(N-((4-Chloro-2,6-diisopropylphenyl)carbamoyl)sulfamoyl)-N,N,1-trimethyl-1H-pyrazole-5-carboxamide], for which, in data set [1] (setting [5]), the AUC is 353 ng·h/mL, the clearance was 161 mL/min/kg, the half-life was 1.3 h and the Vd came to 10.6 L/kg. In addition, in data set [2], the IC50 lay in the range of 40 to 160 nM. Moreover, the IC50 in data set [3] is 1600 to 3200 nM.
Take `CC(C)c1cc(Cl)cc(C(C)C)c1NC(=O)NS(=O)(=O)c1cc(C(=O)N(C)CCO)n(C)n1` [Example 74, 3-(N-((4-Chloro-2,6-diisopropylphenyl)carbamoyl)sulfamoyl)-N-(2-hydroxyethyl)-N,1-dimethyl-1H-pyrazole-5-carboxamide]: the IC50 in data set [2] was 40 to 160 nM; in data set [3] it was 800 to 1600 nM.
On to `CN(CCO)C(=O)c1cc(S(=O)(=O)NC(=O)Nc2c3c(cc4c2CCC4)CCC3)nn1C` [Example 78, 3-(N-((1,2,3,5,6,7-Hexahydro-s-indacen-4-yl)carbamoyl)sulfamoyl)-N-(2-hydroxyethyl)-N,1-dimethyl-1H-pyrazole-5-carboxamide], for which the IC50 in data set [2] was 40 to 160 nM; in data set [3], < 400 nM.
For `COCCN(CCOC)C(=O)c1cc(S(=O)(=O)NC(=O)Nc2c(-c3ccnc(OC(C)C)c3)cc(F)cc2C(C)C)nn1C` [Example 79, 3-(N-((4-Fluoro-2-(2-isopropoxypyridin-4-yl)-6-isopropyl-phenyl)carbamoyl)sulfamoyl)-N,N-bis(2-methoxyethyl)-1-methyl-1H-pyrazole-5-carboxamide], the half-maximal inhibitory concentration (IC50) in data set [2] fell in the range of 2560 to 10000 nM; in data set [3], 3200 to 10000 nM.
As to `COCCN(CCOC)C(=O)c1cc(S(=O)(=O)NC(=O)Nc2c(-c3ccnc(OC)c3)ccc3c2CCC3)nn1C` [Example 80, N,N-Bis(2-methoxyethyl)-3-(N-((5-(2-methoxypyridin-4-yl)-2,3-dihydro-1H-inden-4-yl)carbamoyl)sulfamoyl)-1-methyl-1H-pyrazole-5-carboxamide], the IC50 in data set [2] was 160 to 640 nM; in data set [3] it was < 400 nM.
The matching figures for `CC(C)Oc1cc(-c2cc(F)cc(C(C)C)c2NC(=O)NS(=O)(=O)c2cc(C(=O)N(C)C)n(C)n2)ccn1` [Example 81, 3-(N-((4-Fluoro-2-(2-isopropoxypyridin-4-yl)-6-isopropyl-phenyl)carbamoyl)sulfamoyl)-N,N,1-trimethyl-1H-pyrazole-5-carboxamide]: 160 to 640 nM and 1600 to 3200 nM.
Regarding `COc1cc(-c2ccc3c(c2NC(=O)NS(=O)(=O)c2cc(C(=O)N(C)C)n(C)n2)CCC3)ccn1` [Example 82, 3-(N-((5-(2-Methoxypyridin-4-yl)-2,3-dihydro-1H-inden-4-yl)carbamoyl)sulfamoyl)-N,N,1-trimethyl-1H-pyrazole-5-carboxamide], the IC50 was < 40 nM in data set [2] and < 400 nM in data set [3].
As to `CN(C)C(=O)C(C)(C)n1ccc(S(=O)(=O)NC(=O)Nc2c3c(cc4c2CCC4)CCC3)n1` [Example 83, 2-(3-(N-((1,2,3,5,6,7-Hexahydro-s-indacen-4-yl)carbamoyl)sulfamoyl)-1H-pyrazol-1-yl)-N,N,2-trimethylpropanamide], the IC50 in data set [2] lay in the range of 40 to 160 nM; in data set [3], 800 to 1600 nM.
On to `COc1cc(-c2ccc3c(c2NC(=O)NS(=O)(=O)c2ccn(C(C)(C)C(=O)N(C)C)n2)CCC3)ccn1` [Example 84], for which the IC50 in data set [2] is < 40 nM; in data set [3] it was < 400 nM.
